This is an account of results in publication PMC9601927 (Foods, 2022).

Data set [1] relates to GLUT2. Description: siRNA-mediated knockdown of GLUT2 in Caco-2 cells (RT-PCR, Western blot). To be noted: 72 h post-transfection. The class given is cell-based. The procedure:
(§1) To examine the effect of sGLT1 and GLUT2 on ANC transmembrane transport in more detail, the Caco-2 cells were transfected with siRNA targeted to sGLT1 and GLUT2 (sGLT1 siRNA-1, sGLT1 siRNA-2, sGLT1 siRNA-3, GLUT2 siRNA-1, GLUT2 siRNA-2, and GLUT2 siRNA-3) to knockdown their expression on day 18 after differentiation. The specific experimental operation was carried out according to the literature. NC siRNA was used as a negative control. The siRNA oligos and all transfection reagents were provided by Hippobio (Huzhou, China). Western blotting and real-time PCR (RT-PCR) analyses were performed to check the sGLT1 and GLUT2 expression levels after 72 h post-transfection.
(§2) According to the manufacturer’s instructions, the MiniBEST Universal RNA Extraction Kit was used to isolate the total RNA from Caco-2 cells. Table 2 lists the three specific primers. GAPDH served as an internal control. […] The 2^−ΔΔCt method was adopted to calculate the relative quantification of the target gene.
(§3) Firstly, the cells were washed twice with 1 mL of cold PBS and then lysed in 100 μL of ice-cold RIPA lysis buffer. […] Finally, the expressions of sGLT1 and GLUT2 were detected using a Western blot assay.

For data set [2], the system named is sGLT1. Description: siRNA-mediated knockdown of sGLT1 in Caco-2 cells (RT-PCR, Western blot). The settings on record: 72 h post-transfection. The class given is cell-based. As to the method: as §1, §2, §3

Take “GLUT2 siRNA-2: siRNA targeted to GLUT2: CGGGCATTCTTATTAGTCATT TGACTAATAAGAATGCCCGTT (CGGGCATTCTTATTAGTCATTTGACTAATAAGAATGCCCGTT; chemistry not given here)”: in data set [1], the “reduction of GLUT2 mRNA levels (RT-PCR)” value is reported as 75% and the “silencing of GLUT2 (Western blot) after siRNA transfection” value was “most effective segment”.

As for “sGLT1 siRNA-3: siRNA targeted to sGLT1: GGAGCGTATTGACCTGGATTT ATCCAGGTCAATACGCTCCTT (GGAGCGTATTGACCTGGATTTATCCAGGTCAATACGCTCCTT; chemistry not given here)”, in data set [2], the “expression of sGLT1 (Western blot) after siRNA transfection” value is recorded as “significantly reduced” and the “reduction of sGLT1 mRNA levels (RT-PCR)” value was found to be 85%.
